Test results from US20250064789A1, “KETOAMIDE DERIVATIVES AND PHARMACEUTICAL USES THEREOF” (priority 2022, published 2025).
Where two headings read alike, the source gives them in different places.

Target: recombinant SARS-CoV-2 M^pro (Severe acute respiratory syndrome coronavirus 2 (2019-nCoV) (SARS-CoV-2), UniProt P0DTD1)
Test: Inhibition of SARS-CoV-2 M^pro enzyme activity (fluorescent substrate assay)
Format: biochemical
[1] = inhibition of SARS-CoV-2 M^pro enzyme activity, values in nM, read-out: IC50
[2] = inhibition of SARS-CoV-2 M^pro enzyme activity, values given in μM, read-out: IC50

Structure (SMILES): O=C(NCc1ccccn1)C(=O)[C@@H](Cc1ccccc1)NC(=O)[C@@H](CC1CCCCC1)NC(=O)C1CCC(F)(F)CC1 [Compound 220]
- IC50 [1]: 13.9 ± 0.1 nM

Structure (SMILES): CC1=NN=C(C)C1C(=O)NC1(C(=O)N[C@H](Cc2ccccc2)C(=O)C(=O)NCc2ccccn2)CCC1 [Compound 212]
- IC50 [1]: 346 ± 9.9 nM

Structure (SMILES): C[C@@H](NC(=O)Cc1cc(OC(F)(F)F)ccc1F)C(=O)N[C@H](Cc1ccccc1)C(=O)C(=O)NCc1nccs1 [Compound 382]
- IC50 [2]: 15000 ± 1300 nM

Structure (SMILES): O=C(NCc1ncno1)C(=O)[C@@H](Cc1ccccc1)NC(=O)c1ccccc1 [Compound 461]
- IC50 [2]: 62300 ± 2070 nM

Structure (SMILES): COc1ccc(COC(C)(C)C(=O)N[C@H](Cc2ccccc2)C(=O)C(=O)NCc2ccccn2)cc1F [Compound 21]
- IC50 [1]: 26.9 ± 3.9 nM

Structure (SMILES): O=C(NCc1ccccn1)C(=O)[C@@H](Cc1ccccc1)NC(=O)[C@H]1CCCCN1C(=O)[C@H]1CC[C@@H](C(F)(F)F)CC1 [Compound 281]
- IC50 [1]: 14.8 ± 0.1 nM

Structure (SMILES): C[C@@H](NC(=O)C1CCC(F)(F)CC1)C(=O)N[C@H](Cc1ccccc1)C(=O)C(=O)NCc1nc2ccccc2s1 [Compound 355]
- IC50 [2]: > 2500 nM

Structure (SMILES): COC[C@@H](NC(=O)C1CCCC(F)(F)C1)C(=O)N[C@H](Cc1ccccc1)C(=O)C(=O)NCc1cscn1 (stereo partly shown) [Compound 544]
- IC50 [1]: 22.5 ± 0.9 nM

Structure (SMILES): O=C(CNC(=O)C1CCCCC1)N[C@H](Cc1ccccc1)C(=O)C(=O)NCc1ccccn1 [Compound 445]
- IC50 [1]: 21.8 ± 0.3 nM

Structure (SMILES): O=C(NCc1ccccn1)C(=O)[C@@H](Cc1ccccc1)NC(=O)C1(NC(=O)N2CCC(F)(F)CC2)CC1 [Compound 300]
- IC50 [2]: 2430 ± 40 nM

Structure (SMILES): O=C(NCc1ccccn1)C(=O)[C@@H](Cc1ccccc1)NC(=O)[C@H](NC(=O)C1CCC(F)(F)CC1)C1CCOCC1 [Compound 230]
- IC50 [1]: 64.5 ± 0.7 nM

Structure (SMILES): C[C@@H](NC(=O)COc1cccc(F)c1)C(=O)N[C@H](Cc1ccccc1)C(=O)C(=O)NCc1ccccn1 [Compound 93]
- IC50 [1]: 28.8 ± 1 nM

Structure (SMILES): C[C@@H](NC(=O)C(C)(C)Oc1ccc([Si](C)(C)C)cc1Cl)C(=O)N[C@H](Cc1ccccc1)C(=O)C(=O)NCc1ccccn1 [Compound 81]
- IC50 (IC50, inhibition of SARS-CoV-2 M^pro enzyme activity, values in nM): 27.9 ± 5.5 nM

Structure (SMILES): C[C@@H](OCc1ccccc1)C(=O)N[C@H](Cc1ccccc1)C(=O)C(=O)NCc1cnccn1 [Compound 27]
- IC50 [1]: 885.8 ± 0.2 nM

Structure (SMILES): O=C(Cn1cc(-c2ccccc2F)nn1)N[C@H](Cc1ccccc1)C(=O)C(=O)NCc1nccs1 [Compound 532, (R)-3-(2-(4-(2-fluorophenyl)-1H-1,2,3-triazol-1-yl)acetamido)-2-oxo-4-phenyl-N-(thiazole-2-ylmethyl)butyramide]
- IC50 [1]: 624.5 ± 2.6 nM

Structure (SMILES): CC(C)(OCc1ccc(F)c(F)c1)C(=O)N[C@H](Cc1ccccc1)C(=O)C(=O)NCc1ccccn1 [Compound 20]
- IC50 [1]: 15.2 ± 0.2 nM

Structure (SMILES): O=C(NC1(C(=O)N[C@H](Cc2ccccc2)C(=O)C(=O)NCc2ccccn2)CCC1)OC1CCC(F)(F)CC1 [Compound 314]
- IC50 [1]: 12.4 ± 0.3 nM

Structure (SMILES): N#Cc1cc(F)cc(C(=O)NCC(=O)N[C@H](Cc2ccccc2)C(=O)C(=O)NCc2ccccn2)c1 [Compound 442]
- IC50 [1]: 20.6 ± 1 nM

Structure (SMILES): CC(C)(NC(=O)CC1CCC(F)(F)CC1)C(=O)N[C@H](Cc1ccccc1)C(=O)C(=O)NCc1ccccn1 [Compound 173]
- IC50 [1]: 10.3 ± 0.1 nM

Structure (SMILES): O=C(NCc1ccccn1)C(=O)[C@@H](Cc1ccccc1)NC(=O)[C@@H]1[C@H]2CCC[C@H]2CN1C(=O)[C@@H](NC(=O)c1cnccn1)C1CCCCC1 [Compound 261]
- IC50 [1]: 863.6 ± 0.1 nM

Structure (SMILES): C[C@@H](OCc1ccc(F)cc1)C(=O)N[C@H](Cc1ccc2ccccc2c1)C(=O)C(=O)NCc1ccc(Cl)cn1 [Compound 53]
- IC50 [1]: 187.8 ± 0.7 nM

Structure (SMILES): O=C(NCc1nccs1)C(=O)[C@@H](Cc1ccccc1)NC(=O)[C@H](NC(=O)C1CCC(F)(F)CC1)C1CC1 [Compound 543]
- IC50 [1]: 107 ± 1.3 nM

Structure (SMILES): C[C@@H](NC(=O)Cc1ccc(Cl)cc1)C(=O)N[C@H](Cc1ccccc1)C(=O)C(=O)NCc1ccccn1 [Compound 76]
- IC50 [1]: 23 ± 1.1 nM

Structure (SMILES): O=C(Cc1noc(-c2ccc(F)c(F)c2)n1)N[C@H](Cc1ccccc1)C(=O)C(=O)NCc1nccs1 [Compound 516, (R)-3-(2-(5-(3,4-difluorophenyl)-1,2,4-oxadiazol-3-yl)acetylamino)-2-oxo-4-phenyl-N-(thiazole-2-ylmethyl)butyramide]
- IC50 [1]: 33 ± 1.9 nM

Structure (SMILES): O=C(NCc1ccccn1)C(=O)[C@@H](Cc1ccccc1)NC(=O)C12CC(CN1C(=O)C1CCC(F)(F)CC1)C2 [Compound 274]
- IC50 [1]: 910.8 ± 6.5 nM

Structure (SMILES): COc1ccc(OC(F)(F)F)cc1C(=O)NC(C)(C)C(=O)N[C@H](Cc1ccccc1)C(=O)C(=O)NCc1ccccn1 [Compound 183]
- IC50 [1]: 21.9 ± 0.3 nM

Structure (SMILES): COC[C@@H](NC(=O)C1CCC(F)(F)CC1)C(=O)N[C@H](Cc1ccccc1)C(=O)C(=O)NCc1cscn1 [Compound 431]
- IC50 [1]: 233.7 ± 1.8 nM

Structure (SMILES): C[C@@H](NC(=O)c1cc2ccccc2[nH]1)C(=O)N[C@H](Cc1ccccc1)C(=O)C(=O)NCc1nccs1 [Compound 380]
- IC50 [1]: 55.8 ± 7.2 nM

Structure (SMILES): Cc1ccc(CO[C@H](C)C(=O)N[C@H](Cc2ccccc2)C(=O)C(=O)NCc2ccccn2)cc1 [Compound 14]
- IC50 [1]: 19.3 ± 2.8 nM

Structure (SMILES): O=C(NCc1nccs1)C(=O)[C@@H](Cc1ccccc1)NC(=O)[C@H]1COCCN1C(=O)[C@@H]1C[C@@H]2[C@H](C1)C2(F)F [Compound 412]
- IC50 [1]: 24.8 ± 0.8 nM

Structure (SMILES): C[C@@H](NS(=O)(=O)c1ccc(F)cc1)C(=O)N[C@H](Cc1ccccc1)C(=O)C(=O)NCc1ccccn1 [Compound 331, (R)-3-((R)-2-((4-fluorophenyl)sulfonamido)propionamido)-2-oxo-4-phenyl-N-(pyridin-2-ylmethyl)butyramide]
- IC50 [1]: 101 ± 2.8 nM

Structure (SMILES): C[C@@H](NC(=O)[C@@H](NC(=O)NC1(CS(=O)(=O)C(C)(C)C)CCCCC1)C(C)(C)C)C(=O)N[C@H](Cc1ccccc1)C(=O)C(=O)NCc1ccccn1 [Compound 113]
- IC50 [1]: 69.1 ± 8.1 nM

Structure (SMILES): O=C(NCc1nccs1)C(=O)[C@@H](Cc1ccccc1)NC(=O)c1ccccc1F [Compound 471]
- IC50 [1]: 264 ± 4 nM

Structure (SMILES): C[C@@H](NC(=O)NC1CCC(F)(F)CC1)C(=O)N[C@H](Cc1ccccc1)C(=O)C(=O)NCc1ccccn1 [Compound 295]
- IC50 [1]: 12.2 nM

Structure (SMILES): O=C(CN1C(=O)CN(c2cccc(Cl)c2)C1=O)N[C@H](Cc1ccccc1)C(=O)C(=O)NCc1nccs1 [Compound 527]
- IC50 [1]: 44.3 ± 1.1 nM

Structure (SMILES): C[C@@H](NC(=O)C(C)(C)Sc1ccc(Cl)cc1Cl)C(=O)N[C@H](Cc1ccccc1)C(=O)C(=O)NCc1ccccn1 [Compound 95]
- IC50 [1]: 8.2 ± 1.1 nM

Structure (SMILES): C[C@@H](NCC1CCC(F)(F)CC1)C(=O)N[C@H](Cc1ccccc1)C(=O)C(=O)NCc1nccs1 [Compound 554]
- IC50 [1]: 890.1 ± 1.3 nM

Structure (SMILES): C[C@@H](NC(=O)C1CCC(F)(F)CC1)C(=O)N[C@H](Cc1ccco1)C(=O)C(=O)NCc1nccs1 [Compound 367]
- IC50 [1]: 105 ± 10.5 nM

Structure (SMILES): C[C@@H](NC(=O)C1Cc2ccccc2O1)C(=O)N[C@H](Cc1ccccc1)C(=O)C(=O)NCc1ccccn1 (stereo partly shown) [Compound 102]
- IC50 [1]: 26.6 ± 0.4 nM

Structure (SMILES): O=C(NCc1ncco1)C(=O)[C@@H](Cc1ccccc1)NC(=O)c1ccccc1 [Compound 457]
- IC50 [2]: 51500 ± 940 nM

Structure (SMILES): CC(C)(NC(=O)C1(F)CCCCC1)C(=O)N[C@H](Cc1ccccc1)C(=O)C(=O)NCc1ccccn1 [Compound 185]
- IC50 [1]: 9.7 ± 0.7 nM

Structure (SMILES): C[C@@H](NC(=O)C(C)(C)c1ccccc1)C(=O)N[C@H](Cc1ccccc1)C(=O)C(=O)NCc1ccccn1 [Compound 73]
- IC50 [1]: 25.8 ± 0.5 nM

Structure (SMILES): COc1ccccc1OCC(=O)N[C@H](C)C(=O)N[C@H](Cc1ccccc1)C(=O)C(=O)NCc1ccccn1 [Compound 89]
- IC50 [1]: 40.9 ± 1.2 nM

Structure (SMILES): CC[C@@H](C)[C@@H](NC(=O)C1CCC(F)(F)CC1)C(=O)N[C@H](Cc1ccccc1)C(=O)C(=O)NCc1ccccn1 [Compound 221]
- IC50 [1]: 15.6 ± 1.2 nM

Structure (SMILES): CC(C)(C(=O)N[C@H](Cc1ccccc1)C(=O)C(=O)NCc1ccccn1)n1cc(-c2ccc(F)cc2)cn1 [Compound 330]
- IC50 [1]: 195 ± 14.5 nM

Structure (SMILES): CC[C@@H](C(=O)N[C@H](C)C(=O)N[C@H](Cc1ccccc1)C(=O)C(=O)NCc1ccccn1)N1CCCC1=O [Compound 123]
- IC50 [1]: 163 ± 2 nM

Structure (SMILES): O=C(NCc1nccs1)C(=O)[C@@H](Cc1ccccc1)NC(=O)C1(NC(=O)C2CCCC(F)(F)C2)CC(F)(F)C1 (stereo partly shown) [Compound 545]
- IC50 [1]: 26.9 ± 0.2 nM

Structure (SMILES): O=C(NCc1ccccn1)C(=O)[C@@H](Cc1ccccc1)NC(=O)C1(C(=O)Nc2ccc(F)cc2)CC1 [Compound 322]
- IC50 [1]: 125 ± 6 nM

Structure (SMILES): O=C(NCc1ccccn1)C(=O)[C@@H](Cc1ccccc1)NC(=O)C(NC(=O)c1ccc(F)cc1)C(F)(F)F (stereo partly shown) [Compound 249]
- IC50 [1]: 256 ± 6.4 nM

Structure (SMILES): N#Cc1ccc(C(=O)NCC(=O)N[C@H](Cc2ccccc2)C(=O)C(=O)NCc2ccccn2)cc1F [Compound 443]
- IC50 [1]: 168 ± 1.9 nM

Structure (SMILES): O=C(NCc1ccccn1)C(=O)[C@@H](Cc1ccccc1)NC(=O)[C@@H]1[C@H]2CCC[C@H]2CN1C(=O)COc1ccc(Cl)c(Cl)c1 [Compound 257]
- IC50 [1]: 71.8 ± 0.1 nM

Structure (SMILES): O=C(NCc1ccccn1)C(=O)[C@@H](Cc1ccccc1)NC(=O)[C@H]1COCCN1C(=O)[C@H]1CC[C@@H](C(F)(F)F)CC1 [Compound 287]
- IC50 [1]: 24.1 nM

Structure (SMILES): N#Cc1cccc(-c2cnn(CC(=O)N[C@H](Cc3ccccc3)C(=O)C(=O)NCc3nccs3)c2)c1 [Compound 496]
- IC50 [1]: 77 ± 4.1 nM

Structure (SMILES): C[C@@H](NC(=O)COc1ccc(OC(F)(F)F)cc1)C(=O)N[C@H](Cc1ccccc1)C(=O)C(=O)NCc1ccccn1 [Compound 69]
- IC50 [1]: 17.7 ± 1.5 nM

Structure (SMILES): C[C@@H](OCc1ccccc1)C(=O)N[C@H](Cc1ccccc1)C(=O)C(=O)NCc1ncccc1Cl [Compound 34]
- IC50 [2]: > 5000 nM

Structure (SMILES): CC(C)(NC(=O)c1cc(Cl)cc(OC(F)(F)F)c1)C(=O)N[C@H](Cc1ccccc1)C(=O)C(=O)NCc1ccccn1 [Compound 181]
- IC50 [1]: 16.6 ± 0.3 nM

Structure (SMILES): O=C(NCc1ccccn1)C(=O)[C@@H](Cc1ccccc1)NC(=O)[C@@H](Cc1cccnc1)NC(=O)C1CCC(F)(F)CC1 [Compound 218]
- IC50 [1]: 23.4 ± 0.8 nM

Structure (SMILES): O=C(NCc1ccccn1)C(=O)[C@@H](Cc1ccccc1)NC(=O)C1(NC(=O)C2CC23CCC(F)(F)CC3)CC1 (stereo partly shown) [Compound 166]
- IC50 [1]: 23.3 ± 0.8 nM

Structure (SMILES): O=C(NCc1ccccn1)C(=O)[C@@H](Cc1ccccc1)NC(=O)[C@@H]1COCCN1C(=O)CC1CCC(F)(F)CC1 [Compound 292]
- IC50 [1]: 11.4 ± 0.2 nM

Structure (SMILES): C[C@@H](OCc1ccccc1)C(=O)N[C@H](Cc1ccccc1)C(=O)C(=O)NCc1ccncn1 [Compound 30]
- IC50 [2]: > 5000 nM

Structure (SMILES): C[C@@H](NC(=O)C1CCC(F)(F)CC1)C(=O)N[C@H](Cc1ccccc1)C(=O)C(=O)NCc1ncccn1 [Compound 337]
- IC50 [1]: 87.9 ± 14.6 nM
